# Laboratory results reported in patent US8507493B2 (AbbVie Inc., priority 2009, dated 2013).
# Biological target: T1, human 11β-HSD1 (Homo sapiens, UniProt P28845)
# T1 construct: truncated (24-287aa) human 11β-HSD1 enzyme; made in house; host or cells: E. coli (lysate, not purified)
# Assay: Human 11β-HSD1 enzymatic SPA assay
# Assay type: biochemical
# Details: truncated (24-287aa) human 11β-HSD1, apparent Ki from IC50 by Cheng-Prusoff
# Method: The ability of test compounds to inhibit human 11β-HSD1 enzymatic activity in vitro was evaluated in a Scintillation Proximity Assay (SPA). Tritiated-cortisone substrate, NADPH cofactor and titrated compound were incubated with truncated (24-287aa) human 11β-HSD1 enzyme at room temperature to allow the conversion to cortisol to occur. The reaction was stopped by adding a non-specific 11β-HSD inhibitor, glycyrrhetinic acid. The tritiated cortisol was captured by a mixture of an anti-cortisol monoclonal antibody and SPA beads coated with anti-mouse antibodies. The reaction plate was shaken at room temperature and the radiolabel bound to SPA beads was then measured on a scintillation counter. The 11β-HSD1 assay was carried out in 96-well microtiter plates in a total volume of […]. To start the assay, 188 μL of master mix which contained 75 nM ^3H-cortisone, 100 nM cortisone and 181 μM NADPH was added to the wells. In order to drive the reaction in the 11β-reductase direction, 1 mM glucose-6-phosphate (G-6-P) and 1 U/mL G-6-P dehydrogenase were also added as a NADPH generating system. Solid compound was dissolved in dimethyl sulfoxide to make a 10 mM stock followed by a subsequent 10-fold serial dilution with dimethyl sulfoxide. Each compound solution in dimethyl sulfoxide was 10-fold diluted in Tris/EDTA buffer (pH 7.4). 22 μL of titrated compound were then added in duplicate to the substrate. Reactions were initiated by the addition of 10 μL of 0.1 mg/mL E. coli lysates overexpressing 11β-HSD1 enzyme. After shaking and incubating plates for 30 minutes at room temperature, reactions were stopped by adding 10 μL of 1 mM glycyrrhetinic acid. The product, tritiated cortisol, was captured by adding 10 μL of 1 μM monoclonal mouse anti-cortisol antibodies and 50 μL of SPA beads coated with anti-mouse antibodies. After shaking for 30 minutes, plates were read in a Microbeta scintillation counter. Percent inhibition was calculated based on the background and the maximal signal. Wells that contained substrate without compound or enzyme were used as the background, while the wells that contained substrate and enzyme without any compound were considered as maximal signal. Percent of inhibition of each compound was calculated relative to the maximal signal and IC50 curves were generated. Assuming competitive inhibition the Cheng-Prusoff equation was used to calculate apparent Ki values from the IC50 values. This assay was applied to 11β-HSD2 as well, whereby 6 nM tritiated cortisol and 250 uM NAD^+ were used as substrate and cofactor, respectively.
# T1 sequence (P28845 24-287): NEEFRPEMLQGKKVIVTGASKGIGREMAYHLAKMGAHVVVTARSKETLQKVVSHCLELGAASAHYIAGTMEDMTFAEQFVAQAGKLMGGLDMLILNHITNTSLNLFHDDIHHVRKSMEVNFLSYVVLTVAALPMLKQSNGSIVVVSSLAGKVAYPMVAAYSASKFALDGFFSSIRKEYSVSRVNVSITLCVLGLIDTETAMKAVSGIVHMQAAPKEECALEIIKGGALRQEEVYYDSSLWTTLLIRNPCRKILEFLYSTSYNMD
row,Compound,Ki
1,"CC(C)(Oc1ccc(F)cc1Cl)C(=NC#N)NC1C2CC3CC1CC(O)(C3)C2 (stereo not drawn) [Example 1, (1E)-2-(2-Chloro-4-fluorophenoxy)-Y-cyano-N-[(E)-5-hydroxy-2-adamantyl]-2-methylpropanimidamide]",10 to 100 nM
2,"Cc1ccccc1CC(=NC#N)NC1C2CC3CC1CC(O)(C3)C2 (stereo not drawn) [Example 2, (1E)-N-Cyano-N-[(E)-5-hydroxy-2-adamantyl]-2-(2-methylphenyl)ethanimidamide]",> 1000 nM
3,"N#CN=C(NC1C2CC3CC1CC(O)(C3)C2)C1(c2ccc(Cl)cc2)CCC1 (stereo not drawn) [Example 3, 1-(4-Chlorophenyl)-N′-cyano-N-[(E)-5-hydroxy-2-adamantyl]cyclobutanecarboximidamide]",> 1000 nM
4,"N#CN=C(Cc1ccc(F)cc1F)NC1C2CC3CC1CC(O)(C3)C2 (stereo not drawn) [Example 4, (1E)-N′-Cyano-2-(2,4-difluorophenyl)-N-[(E)-5-hydroxy-2-adamantyl]ethanimidamide]",> 1000 nM
5,"N#C/N=C(\Cc1ccccc1F)N[C@@H]1[C@@H]2C[C@@H]3C[C@H]1C[C@@](O)(C3)C2 [Example 5, (1E)-N′-Cyano-2-(2-fluorophenyl)-N-[(E)-5-hydroxy-2-adamantyl]ethanimidamide]",> 1000 nM
6,"N#CN=C(Cc1cccnc1Cl)NC1C2CC3CC1CC(O)(C3)C2 (stereo not drawn) [Example 6, (1E)-2-(2-Chloropyridin-3-yl)-N′-cyano-N-[(E)-5-hydroxy-2-adamantyl]ethanimidamide]",> 1000 nM
7,"N#CN=C(COc1ccc(Cl)cc1)NC1C2CC3CC1CC(O)(C3)C2 (stereo not drawn) [Example 7, (1E)-2-(4-Chlorophenoxy)-N′-cyano-N-[(E)-5-hydroxy-2-adamantyl]ethanimidamide]",> 1000 nM
8,"CC(C)(Oc1ccc(Cl)cc1)C(=NC#N)NC1C2CC3CC1CC(O)(C3)C2 (stereo not drawn) [Example 8, (1E)-2-(4-Chlorophenoxy)-N′-cyano-N-[(E)-5-hydroxy-2-adamantyl]-2-methylpropanimidamide]",≤ 10 nM
9,"CC(C)(Oc1ccc(Cl)cc1)C(=S)NC1C2CC3CC1CC(S(C)(=O)=O)(C3)C2 (stereo not drawn) [Example 9, 2-(4-Chlorophenoxy)-2-methyl-N-[(E)-5-(methylsulfonyl)-2-adamantyl]propanethioamide]",10 to 100 nM
10,"CC(C)(Oc1ccc(Cl)cc1)C(=NC#N)NC1C2CC3CC1CC(S(N)(=O)=O)(C3)C2 (stereo not drawn) [Example 10, (1E)-N-[(E)-5-(Aminosulfonyl)-2-adamantyl]-2-(4-chlorophenoxy)-N′-cyano-2-methylpropanimidamide]",100 to 1000 nM
11,"COC(=O)C12CC3CC(C1)C(NC(=NC#N)C(C)(C)Oc1ccc(Cl)cc1)C(C3)C2 (stereo not drawn) [Example 11, Methyl(E)-4-{[(1E)-2-(4-chlorophenoxy)-N-cyano-2-methylpropanimidoyl]amino}adamantane-1-carboxylate]",100 to 1000 nM
12,"CC(C)(Oc1ccc(F)cc1Cl)C(=S)N[C@@H]1[C@@H]2C[C@@H]3C[C@H]1C[C@@](S(C)(=O)=O)(C3)C2 [Example 12, 2-(2-Chloro-4-fluorophenoxy)-2-methyl-N-[(E)-5-(methylsulfonyl)-2-adamantyl]propanethioamide]",10 to 100 nM
13,"CON=C(NC1C2CC3CC1CC(S(C)(=O)=O)(C3)C2)C(C)(C)Oc1ccc(Cl)cc1 (stereo not drawn) [Example 13, (1E)-2-(4-Chlorophenoxy)-N-methoxy-2-methyl-N-[(E)-5-(methylsulfonyl)-2-adamantyl]propanimidamide]",100 to 1000 nM
14,"CC(C)(Oc1ccc(Cl)cc1)C(=NC#N)NC1C2CC3CC1CC(C(N)=O)(C3)C2 (stereo not drawn) [Example 14, (E)-4-{[(1E)-2-(4-Chlorophenoxy)-N-cyano-2-methylpropanimidoyl]amino}adamantane-1-carboxamide]",≤ 10 nM
15,"N#CN=C(NC1C2CC3CC1CC(O)(C3)C2)C1(Oc2cccc(Cl)c2)CCC1 (stereo not drawn) [Example 15, 1-(3-Chlorophenoxy)-N′-cyano-N-[(E)-5-hydroxy-2-adamantyl]cyclobutane carboximidamide]",100 to 1000 nM
16,"COC(=O)C12CC3CC(C1)C(NC(=S)C(C)(C)OCc1ccc(C(F)(F)F)cc1)C(C3)C2 (stereo not drawn) [Example 16, Methyl(E)-4-[(2-methyl-2-{[4-(trifluoromethyl)benzyl]oxy}propanethioyl)amino]adamantane-1-carboxylate]",100 to 1000 nM
17,"COC(=O)C12CC3CC(C1)C(NC(=NC#N)C(C)(C)OCc1ccc(C(F)(F)F)cc1)C(C3)C2 (stereo not drawn) [Example 17, Methyl(E)-4-[((1E)-N-cyano-2-methyl-2-{[4-(trifluoromethyl)benzyl]oxy}propanimidoyl)amino]adamantane-1-carboxylate]",100 to 1000 nM
18,"CC(C)(Oc1ccc(F)cc1Cl)/C(=N\C#N)NC1C2CC3CC1CC(S(C)(=O)=O)(C3)C2 (stereo not drawn) [Example 18, (1E)-2-(2-Chloro-4-fluorophenoxy)-N-cyano-2-methyl-N-[(E)-5-(methylsulfonyl)-2-adamantyl]propanimidamide]",10 to 100 nM
19,"CC(C)(Oc1ccc(Cl)cc1)C(=NC#N)NC1C2CC3CC1CC(S(C)(=O)=O)(C3)C2 (stereo not drawn) [Example 19, (1E)-2-(4-Chlorophenoxy)-N-cyano-2-methyl-N-[(E)-5-(methylsulfonyl)-2-adamantyl]propanimidamide]",10 to 100 nM
20,"COC(=O)C12CC3CC(C1)C(NC(=S)C(C)(C)N1CCN(c4ccc(C(F)(F)F)cn4)CC1)C(C3)C2 (stereo not drawn) [Example 21, Methyl(E)-4-[(2-methyl-2-{4-[5-(trifluoromethyl)pyridin-2-yl]piperazin-1-yl}propanethioyl)amino]adamantane-1-carboxylate]",10 to 100 nM
21,"CC(C)(Cc1ccc(Cl)cc1)C(=N)NC1C2CC3CC1CC(O)(C3)C2 (stereo not drawn) [Example 22, 3-(4-Chlorophenyl)-N-[(E)-5-hydroxy-2-adamantyl]-2,2-dimethylpropanimidamide]",> 1000 nM
22,"CC(C)(Cc1ccc(Cl)cc1)C(=NC#N)NC1C2CC3CC1CC(O)(C3)C2 (stereo not drawn) [Example 23, (1E)-3-(4-Chlorophenyl)-N′-cyano-N-[(E)-5-hydroxy-2-adamantyl]-2,2-dimethyl propanimidamide]",100 to 1000 nM
23,"CC(C)(OCc1ccc(C(F)(F)F)cc1)C(=NC#N)NC1C2CC3CC1CC(C(=O)O)(C3)C2 (stereo not drawn) [Example 24, (E)-4-[((1E)-N-Cyano-2-methyl-2-{[4-(trifluoromethyl)benzyl]oxy}propanimidoyl)amino]adamantane-1-carboxylic acid]",10 to 100 nM
24,"CC(C)(OCc1ccc(C(F)(F)F)cc1)/C(=N\C#N)N[C@@H]1[C@@H]2C[C@@H]3C[C@H]1C[C@@](C(N)=O)(C3)C2 [Example 25, (E)-4-[((1E)-N-Cyano-2-methyl-2-{[4-(trifluoromethyl)benzyl]oxy}propanimidoyl)amino]adamantane-1-carboxamide]",10 to 100 nM
25,"CC(C)(OCc1ccc(C(F)(F)F)cc1)C(=NC#N)NC1C2CC3CC1CC(C#N)(C3)C2 (stereo not drawn) [Example 27, (1E)-N-Cyano-N-[(E)-5-cyano-2-adamantyl]-2-methyl-2-{[4-(trifluoromethyl)benzyl]oxy}propanimidamide]",≤ 10 nM
26,"COC(=O)C12CC3CC(C1)C(NC(=NC#N)C(C)(C)OCc1ccc(OC)cc1)C(C3)C2 (stereo not drawn) [Example 28, Methyl(E)-4-({(1E)-N-cyano-2-[(4-methoxybenzyl)oxy]-2-methylpropanimidoyl}amino)adamantane-1-carboxylate]",100 to 1000 nM
27,"COC(=O)C12CC3CC(C1)C(NC(=NC#N)C(C)(C)N1CCN(c4ccc(C(F)(F)F)cn4)CC1)C(C3)C2 (stereo not drawn) [Example 29, Methyl(E)-4-[((1E)-N-cyano-2-methyl-2-{4-[5-(trifluoromethyl)pyridin-2-yl]piperazin-1-yl}propanimidoyl)amino]adamantane-1-carboxylate]",100 to 1000 nM
28,"CC(C)(/C(=N\C#N)N[C@@H]1[C@@H]2C[C@@H]3C[C@H]1C[C@@](C(=O)O)(C3)C2)N1CCN(c2ccc(C(F)(F)F)cn2)CC1 [Example 30, (E)-4-[((1E)-N-Cyano-2-methyl-2-{4-[5-(trifluoromethyl)pyridin-2-yl]piperazin-1-yl}propanimidoyl)amino]adamantane-1-carboxylic acid]",> 1000 nM
29,"CC(C)(C(=NC#N)NC1C2CC3CC1CC(C(N)=O)(C3)C2)N1CCN(c2ccc(C(F)(F)F)cn2)CC1 (stereo not drawn) [Example 31, (E)-4-[((1E)-N-Cyano-2-methyl-2-{4-[5-(trifluoromethyl)pyridin-2-yl]piperazin-1-yl}propanimidoyl)amino]adamantane-1-carboxamide]",100 to 1000 nM
30,"CC1(C)/C(=N/C#N)N([C@@H]2[C@@H]3C[C@@H]4C[C@H]2C[C@@](S(C)(=O)=O)(C4)C3)CC1COc1ccc(C#N)cn1 (stereo partly drawn) [Example 33, (2Z)-4-{[(5-Cyanopyridin-2-yl)oxy]methyl}-3,3-dimethyl-1-[(E)-5-(methylsulfonyl)-2-adamantyl]pyrrolidin-2-ylidenecyanamide]",100 to 1000 nM
